Reference: paper PMC10381909, “Secondary Metabolites from the Cultures of Medicinal Mushroom Vanderbylia robiniophila and Their Tyrosinase Inhibitory Activities” (Journal of Fungi, 2023)

Tests used:
[1] = system: Aβ1–42; parameters: method as in PMID 31520649; conditions: pair of enantiomeric compounds from corn silk; cited from earlier work
[2] = target: tyrosinase (Agaricus bisporus, UniProt C7FF04); experiment: Enzyme kinetic analysis (V-S curve, Lineweaver–Burk plot, secondary replot); assay type: biochemical
Procedure: The inhibition type was measured by the reaction rate–substrate concentration curve and the Lineweaver–Burk plot. L-tyrosine solutions were diluted to different concentrations (5 mM, 7.5 mM, 9 mM, 12 mM, 15 mM) as the substate. The inhibition constant was determined by the second plot of the y-intercept versus the concentration of the inhibitor. The values of Kis were calculated from the following formula: y-intercept=1/Vm1+[I]/Kis
The inhibition constant Kis was obtained from the plot of the y-intercept versus the concentration of 10, which was calculated to be 0.04 mM (Figure 5C).

[3] = system: HeLa cells; parameters: method as in PMID 21747753, PMID 21673896, PMID 31671793; conditions: obtained from marine-derived fungi; cited from earlier work

tyrosinase, sequence (C7FF04 1-392): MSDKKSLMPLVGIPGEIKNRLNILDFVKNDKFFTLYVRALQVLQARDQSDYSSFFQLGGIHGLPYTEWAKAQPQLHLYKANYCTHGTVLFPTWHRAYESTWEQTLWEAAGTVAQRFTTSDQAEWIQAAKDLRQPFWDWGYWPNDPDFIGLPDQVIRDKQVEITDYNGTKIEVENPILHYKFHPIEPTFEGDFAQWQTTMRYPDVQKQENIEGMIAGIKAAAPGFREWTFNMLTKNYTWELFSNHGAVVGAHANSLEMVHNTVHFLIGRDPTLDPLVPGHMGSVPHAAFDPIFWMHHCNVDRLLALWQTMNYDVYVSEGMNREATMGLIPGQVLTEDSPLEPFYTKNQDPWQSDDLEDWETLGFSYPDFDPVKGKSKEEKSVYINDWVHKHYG

Row | inhibition type on tyrosinase ([2]; L-tyrosine 5–15 mM, Lineweaver–Burk plot) | change of Km and Vm with increasing inhibitor concentration ([2]; ratio Km/Vm remained unchanged) | SMILES | anti-Aβ1–42 aggregation activity [1] | cytotoxic activity against HeLa cells [3]
1 | – | – | COC(=O)CCCCCCC[C@H]1C=CC(=O)O1 [Compound 9, Cornilkone C] | weak | –
2 | uncompetitive inhibitor | decreased | COC(=O)C(=O)c1c[nH]c2ccccc12 [Compound 10, (1H-indol-3-yl) oxoacetic acid methyl ester] | – | weak
